In article PMC8222254, “Self-assembly of an anion receptor with metal-dependent kinase inhibition and potent in vitro anti-cancer properties” (Nature Communications, 2021):
Values joined by “and” are separate entries in the source; they are usually repeats but may differ in a detail not shown here. Equal entries are not always repeated.

Legend:
Assay in all cases: Kinase inhibition screen, cell-free 33P ATP assay at 10 μM
Format in all cases: biochemical
[1] = biological target: T1, 140 purified human kinases (Homo sapiens, UniProt O43781)
T1 sequence (O43781 1-588): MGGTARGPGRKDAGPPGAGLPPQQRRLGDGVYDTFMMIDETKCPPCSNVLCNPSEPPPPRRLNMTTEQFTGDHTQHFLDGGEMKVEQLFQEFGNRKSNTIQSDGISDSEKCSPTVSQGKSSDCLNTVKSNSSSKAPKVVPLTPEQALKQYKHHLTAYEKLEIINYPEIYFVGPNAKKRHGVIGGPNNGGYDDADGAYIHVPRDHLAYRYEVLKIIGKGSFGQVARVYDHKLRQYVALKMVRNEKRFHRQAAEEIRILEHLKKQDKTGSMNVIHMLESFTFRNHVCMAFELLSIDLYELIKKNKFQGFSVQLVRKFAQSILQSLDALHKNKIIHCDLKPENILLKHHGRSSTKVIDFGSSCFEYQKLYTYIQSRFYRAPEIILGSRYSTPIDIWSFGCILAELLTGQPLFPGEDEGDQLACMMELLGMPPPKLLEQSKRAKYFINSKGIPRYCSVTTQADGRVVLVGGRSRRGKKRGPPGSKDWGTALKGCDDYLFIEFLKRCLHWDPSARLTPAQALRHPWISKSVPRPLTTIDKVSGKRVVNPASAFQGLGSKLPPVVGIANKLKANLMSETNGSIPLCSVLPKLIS
Outline: (§1)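 Radiometric ^33P ATP cell-free format with purified enzymes; both complexes run at 10 μM in duplicate, results plotted on a kinome map via HGNC symbols.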

[2] = biological target: T2, 140 purified human kinases (Homo sapiens, UniProt O14757)
T2 sequence (O14757 1-476): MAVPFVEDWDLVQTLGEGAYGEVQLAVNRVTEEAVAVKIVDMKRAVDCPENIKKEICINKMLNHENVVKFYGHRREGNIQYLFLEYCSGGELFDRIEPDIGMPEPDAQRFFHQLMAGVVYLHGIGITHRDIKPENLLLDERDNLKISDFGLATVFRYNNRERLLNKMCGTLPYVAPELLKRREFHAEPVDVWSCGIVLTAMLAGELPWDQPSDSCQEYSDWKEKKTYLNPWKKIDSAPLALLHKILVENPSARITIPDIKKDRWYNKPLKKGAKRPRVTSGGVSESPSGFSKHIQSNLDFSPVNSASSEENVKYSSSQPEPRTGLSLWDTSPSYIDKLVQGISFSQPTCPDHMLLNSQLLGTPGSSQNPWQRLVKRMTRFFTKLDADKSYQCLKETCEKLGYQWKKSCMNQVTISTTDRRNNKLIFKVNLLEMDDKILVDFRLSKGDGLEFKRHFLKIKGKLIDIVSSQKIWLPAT
Outline: as §1

[3] = biological target: 140 purified human kinases (Homo sapiens, UniProt P31749); settings: PKBa
Sequence of 140 purified human kinases (Homo sapiens, UniProt P31749) (P31749 whole entry): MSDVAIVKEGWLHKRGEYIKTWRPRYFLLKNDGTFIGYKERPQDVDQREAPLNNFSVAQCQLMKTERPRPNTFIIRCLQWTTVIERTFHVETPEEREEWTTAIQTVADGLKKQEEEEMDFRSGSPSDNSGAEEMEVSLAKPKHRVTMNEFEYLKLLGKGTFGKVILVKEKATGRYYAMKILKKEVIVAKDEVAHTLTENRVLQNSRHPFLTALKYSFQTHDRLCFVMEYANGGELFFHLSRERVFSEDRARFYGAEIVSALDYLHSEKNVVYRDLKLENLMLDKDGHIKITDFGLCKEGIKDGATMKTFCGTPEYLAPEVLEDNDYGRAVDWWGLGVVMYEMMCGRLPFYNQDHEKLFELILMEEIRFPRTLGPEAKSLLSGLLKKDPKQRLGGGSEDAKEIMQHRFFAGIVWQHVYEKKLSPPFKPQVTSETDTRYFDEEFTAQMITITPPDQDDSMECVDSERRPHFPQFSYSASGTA
Outline: as §1

[4] = biological target: 140 purified human kinases (Homo sapiens, UniProt P05129); settings: PKCγ
Outline: as §1

[5] = biological target: 140 purified human kinases (Homo sapiens, UniProt P07947)
Sequence of 140 purified human kinases (Homo sapiens, UniProt P07947) (P07947 whole entry): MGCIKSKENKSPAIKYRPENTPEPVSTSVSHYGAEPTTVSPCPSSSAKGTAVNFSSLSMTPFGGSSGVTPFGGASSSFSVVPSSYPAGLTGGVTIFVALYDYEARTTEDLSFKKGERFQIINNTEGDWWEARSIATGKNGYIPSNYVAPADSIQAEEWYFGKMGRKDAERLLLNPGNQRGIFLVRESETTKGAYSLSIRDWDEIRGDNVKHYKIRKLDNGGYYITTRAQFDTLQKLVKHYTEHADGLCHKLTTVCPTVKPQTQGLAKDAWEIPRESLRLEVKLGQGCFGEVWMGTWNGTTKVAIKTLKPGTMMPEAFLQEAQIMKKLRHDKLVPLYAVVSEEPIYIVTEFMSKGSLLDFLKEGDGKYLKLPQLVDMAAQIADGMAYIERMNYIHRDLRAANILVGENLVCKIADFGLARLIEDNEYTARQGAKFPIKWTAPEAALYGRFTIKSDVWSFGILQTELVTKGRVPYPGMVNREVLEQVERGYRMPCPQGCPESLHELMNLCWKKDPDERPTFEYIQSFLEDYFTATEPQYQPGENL
Outline: as §1

[6] = biological target: 140 purified human kinases (Homo sapiens, UniProt P53350); settings: for % Activity Run 1 / % Activity Run 2: 10 µM
Sequence of 140 purified human kinases (Homo sapiens, UniProt P53350) (P53350 whole entry): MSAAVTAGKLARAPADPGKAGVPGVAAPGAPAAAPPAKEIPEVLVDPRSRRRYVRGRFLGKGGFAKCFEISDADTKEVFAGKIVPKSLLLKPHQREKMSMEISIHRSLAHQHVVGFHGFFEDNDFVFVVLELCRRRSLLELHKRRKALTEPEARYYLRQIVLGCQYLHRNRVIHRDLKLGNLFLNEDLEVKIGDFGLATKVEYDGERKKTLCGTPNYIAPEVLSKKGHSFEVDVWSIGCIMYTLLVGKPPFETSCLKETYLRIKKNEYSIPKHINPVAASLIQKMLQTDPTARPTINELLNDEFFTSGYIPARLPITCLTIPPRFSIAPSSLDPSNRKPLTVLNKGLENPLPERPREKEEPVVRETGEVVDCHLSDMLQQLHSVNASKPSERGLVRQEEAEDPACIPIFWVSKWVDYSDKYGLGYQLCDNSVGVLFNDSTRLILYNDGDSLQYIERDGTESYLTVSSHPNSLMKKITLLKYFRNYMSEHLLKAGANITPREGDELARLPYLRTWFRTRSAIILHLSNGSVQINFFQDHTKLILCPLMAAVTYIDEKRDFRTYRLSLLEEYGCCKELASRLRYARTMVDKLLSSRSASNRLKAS
Outline: as §1

[7] = biological target: 140 purified human kinases (Homo sapiens, UniProt Q9BYT3)
Sequence of 140 purified human kinases (Homo sapiens, UniProt Q9BYT3) (Q9BYT3 whole entry): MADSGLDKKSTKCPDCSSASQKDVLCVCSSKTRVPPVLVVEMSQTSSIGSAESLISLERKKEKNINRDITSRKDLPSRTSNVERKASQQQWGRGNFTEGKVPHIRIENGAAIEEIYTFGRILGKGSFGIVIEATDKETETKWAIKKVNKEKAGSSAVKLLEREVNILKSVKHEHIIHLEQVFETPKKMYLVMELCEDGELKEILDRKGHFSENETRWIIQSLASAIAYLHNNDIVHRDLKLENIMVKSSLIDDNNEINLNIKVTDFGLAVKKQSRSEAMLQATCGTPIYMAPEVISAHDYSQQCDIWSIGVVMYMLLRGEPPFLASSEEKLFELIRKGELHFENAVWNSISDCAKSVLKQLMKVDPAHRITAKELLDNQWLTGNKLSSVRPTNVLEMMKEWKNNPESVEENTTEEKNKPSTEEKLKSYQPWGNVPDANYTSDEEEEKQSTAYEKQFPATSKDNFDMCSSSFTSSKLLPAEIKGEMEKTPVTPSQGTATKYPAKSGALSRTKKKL
Outline: as §1

[8] = biological target: 140 purified human kinases (Homo sapiens, UniProt Q9P286); settings: for % Activity Run 1 / % Activity Run 2: 10 µM
Sequence of 140 purified human kinases (Homo sapiens, UniProt Q9P286) (Q9P286 whole entry): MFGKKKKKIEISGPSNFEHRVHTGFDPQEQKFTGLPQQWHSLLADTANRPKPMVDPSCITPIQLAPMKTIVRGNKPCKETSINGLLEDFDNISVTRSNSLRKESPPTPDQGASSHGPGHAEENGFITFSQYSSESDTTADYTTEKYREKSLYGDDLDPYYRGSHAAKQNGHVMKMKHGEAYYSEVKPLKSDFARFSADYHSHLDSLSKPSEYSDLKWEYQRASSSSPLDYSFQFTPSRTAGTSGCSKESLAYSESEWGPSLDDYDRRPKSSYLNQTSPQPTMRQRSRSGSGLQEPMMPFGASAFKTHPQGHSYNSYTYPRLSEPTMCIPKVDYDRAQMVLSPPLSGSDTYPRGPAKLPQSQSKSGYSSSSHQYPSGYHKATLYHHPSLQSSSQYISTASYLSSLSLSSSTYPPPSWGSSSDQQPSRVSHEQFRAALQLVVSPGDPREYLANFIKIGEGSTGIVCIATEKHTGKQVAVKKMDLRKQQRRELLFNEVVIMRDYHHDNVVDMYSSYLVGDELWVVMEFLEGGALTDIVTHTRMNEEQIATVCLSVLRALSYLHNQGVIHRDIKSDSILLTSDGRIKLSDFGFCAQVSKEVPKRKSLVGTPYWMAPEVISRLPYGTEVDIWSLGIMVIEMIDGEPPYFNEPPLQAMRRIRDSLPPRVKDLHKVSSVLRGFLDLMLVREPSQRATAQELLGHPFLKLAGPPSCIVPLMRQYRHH
Outline: as §1

[9] = biological target: 140 purified human kinases (Homo sapiens, UniProt Q96RR4); settings: CAMKKb
Sequence of 140 purified human kinases (Homo sapiens, UniProt Q96RR4) (Q96RR4 whole entry): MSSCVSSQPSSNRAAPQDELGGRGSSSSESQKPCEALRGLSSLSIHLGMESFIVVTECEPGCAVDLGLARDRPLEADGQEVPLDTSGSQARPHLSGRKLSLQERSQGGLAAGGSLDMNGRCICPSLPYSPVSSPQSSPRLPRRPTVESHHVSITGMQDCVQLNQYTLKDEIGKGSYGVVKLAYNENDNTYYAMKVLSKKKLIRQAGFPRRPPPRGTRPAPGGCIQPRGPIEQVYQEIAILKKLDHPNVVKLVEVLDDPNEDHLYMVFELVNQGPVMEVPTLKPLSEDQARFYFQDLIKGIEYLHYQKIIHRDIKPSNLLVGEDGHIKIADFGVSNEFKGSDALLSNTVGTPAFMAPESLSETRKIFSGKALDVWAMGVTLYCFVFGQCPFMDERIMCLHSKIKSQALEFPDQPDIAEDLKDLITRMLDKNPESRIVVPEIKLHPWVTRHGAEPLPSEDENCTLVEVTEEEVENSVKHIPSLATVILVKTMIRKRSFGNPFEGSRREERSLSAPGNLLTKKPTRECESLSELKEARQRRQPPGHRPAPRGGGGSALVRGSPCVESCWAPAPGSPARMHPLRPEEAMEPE
Outline: as §1

CC(=O)[O-].CC(=O)[O-].CC(=O)[O-].CC(=O)[O-].CC(=O)[O-].CC(=O)[O-].[Zn+2].[Zn+2].[Zn+2].c1ccc(-c2csc(NCCN(CCNc3nc(-c4ccccn4)cs3)CCNc3nc(-c4ccccn4)cs3)n2)nc1.c1ccc(-c2csc(NCCN(CCNc3nc(-c4ccccn4)cs3)CCNc3nc(-c4ccccn4)cs3)n2)nc1 [[L2Zn3]6+]
% Inhibition, Mean ([1]; DYRK3): 30% | % Inhibition, Run 1 / Run 2 ([1]; DYRK3): 32% and 28% | mean % activity ([1]; DYRK3): 70% | % activity ([1]; DYRK3, duplicate runs): 68% and 72% | % Inhibition, Mean ([2]; CHK1): 17% | % Inhibition, Run 1 / Run 2 ([2]; CHK1): 18% and 16% | mean % activity ([2]; CHK1): 83% | % activity ([2]; CHK1, duplicate runs): 82% and 84% | % Inhibition, Mean [3]: 17% | mean % activity [3]: 83% | % activity ([3]; duplicate runs): 68% and 99% | % Inhibition, Mean [4]: 32% | % Inhibition, Run 1 / Run 2 [4]: 36% and 27% | mean % activity [4]: 68% | % activity ([4]; duplicate runs): 64% and 73% | % Inhibition, Mean ([5]; YES1): 8% | % Inhibition, Run 1 / Run 2 ([5]; YES1): 7% and 8% | mean % activity ([5]; YES1): 92% | % activity ([5]; YES1, duplicate runs): 93% and 92% | % Activation, Mean value ([6]; PLK1): 17% | % Inhibition, Mean ([6]; PLK1): -17% | % Inhibition, Run 1 / Run 2 ([6]; PLK1): -15% and -19% | mean % activity ([6]; PLK1): 117% | % Activity Run 1 ([6]; PLK1): 115.0% | % Activity Run 2 ([6]; PLK1): 119.0% | % activity ([6]; PLK1, duplicate runs): 115% and 119% | % Inhibition, Mean ([7]; STK33): 6.55% | % Inhibition, Run 1 / Run 2 ([7]; STK33): 3.3% and 10% | mean % activity ([7]; STK33): 93% | % activity ([7]; STK33, duplicate runs): 97% and 90% | % Activation, Mean value ([8]; PAK5): 20% | % Inhibition, Mean ([8]; PAK5): -20% | mean % activity ([8]; PAK5): 120% | % Activity Run 1 ([8]; PAK5): 110.0% | % Activity Run 2 ([8]; PAK5): 130.0% | % activity ([8]; PAK5, duplicate runs): 110% and 130% | % Inhibition, Mean [9]: 44% | % Inhibition, Run 1 / Run 2 [9]: 44% | mean % activity [9]: 56% | % activity ([9]; duplicate runs): 57% and 56%

[Cu+2].[Cu+2].[Cu+2].c1ccc(-c2csc(NCCN(CCNc3nc(-c4ccccn4)cs3)CCNc3nc(-c4ccccn4)cs3)n2)nc1.c1ccc(-c2csc(NCCN(CCNc3nc(-c4ccccn4)cs3)CCNc3nc(-c4ccccn4)cs3)n2)nc1 [[L2Cu3]6+]
% Inhibition Run 1 ([1]; DYRK3): 42.6% | % Inhibition Run 2 ([1]; DYRK3): 40.9% | % Inhibition, Mean ([1]; DYRK3): 42% | mean % activity ([1]; DYRK3): 58% | % activity ([1]; DYRK3, Run 1): 57.4% | % activity ([1]; DYRK3, Run 2): 59.1% | % Inhibition Run 1 ([2]; CHK1): 45.6% | % Inhibition Run 2 ([2]; CHK1): 41.5% | % Inhibition, Mean ([2]; CHK1): 44% | mean % activity ([2]; CHK1): 56% | % activity ([2]; CHK1, Run 1): 54.4% | % activity ([2]; CHK1, Run 2): 58.5% | % Inhibition Run 1 [3]: 72.1% | % Inhibition Run 2 [3]: 76% | % Inhibition, Mean [3]: 74% | mean % activity [3]: 26% | % activity ([3]; Run 1): 27.9% | % activity ([3]; Run 2): 24% | % Inhibition Run 1 [4]: 58.1% | % Inhibition Run 2 [4]: 72% | % Inhibition, Mean [4]: 65% | mean % activity [4]: 35% | % activity ([4]; Run 1): 41.9% | % activity ([4]; Run 2): 28% | % Inhibition Run 1 ([5]; YES1): 12.4% | % Inhibition Run 2 ([5]; YES1): -9% | % Inhibition, Mean ([5]; YES1): 1.7% | mean % activity ([5]; YES1): 98% | % activity ([5]; YES1, Run 1): 87.6% | % activity ([5]; YES1, Run 2): 109% | % Activation, Mean value ([6]; PLK1): 12% | % Inhibition Run 1 ([6]; PLK1): -4.1% | % Inhibition Run 2 ([6]; PLK1): -19.1% | % Inhibition, Mean ([6]; PLK1): -12% | mean % activity ([6]; PLK1): 112% | % activity ([6]; PLK1, Run 1): 104.1% | % activity ([6]; PLK1, Run 2): 119.1% | % Activity Run 1 ([6]; PLK1): 104.10% | % Activity Run 2 ([6]; PLK1): 119.10% | % Activation, Mean value ([7]; STK33): 7% | % Inhibition Run 1 ([7]; STK33): -1.8% | % Inhibition Run 2 ([7]; STK33): -12.3% | % Inhibition, Mean ([7]; STK33): -7% | mean % activity ([7]; STK33): 107% | % activity ([7]; STK33, Run 1): 101.8% | % activity ([7]; STK33, Run 2): 112.3% | % Activation, Mean value ([8]; PAK5): 10% | % Inhibition Run 1 ([8]; PAK5): -1.8% | % Inhibition Run 2 ([8]; PAK5): -17.5% | % Inhibition, Mean ([8]; PAK5): -10% | mean % activity ([8]; PAK5): 110% | % activity ([8]; PAK5, Run 1): 101.8% | % activity ([8]; PAK5, Run 2): 117.5% | % Activity Run 1 ([8]; PAK5): 101.80% | % Activity Run 2 ([8]; PAK5): 117.50% | % Inhibition Run 1 [9]: 42.1% | % Inhibition Run 2 [9]: 54.8% | % Inhibition, Mean [9]: 48% | mean % activity [9]: 52% | % activity ([9]; Run 1): 57.9% | % activity ([9]; Run 2): 45.2%
